Legend:
PGC-1α promoter = PGC-1α promoter luciferase assay (compound screening) in SH-PGC-1α-Luc reporter cells; assay type: cell-based, human; conditions: SH-PGC-1α-Luc cells, comparison of 14 drugs
Description: In order to prepare lentiviruses for preparation of stable reporter SH-SY5Y cells (SH-PGC-1α-Luc), 1-kb pGL3-PGC-1α promoter-luciferase was cloned to pGreenFire (System Biosciences), and a lentivirus construct was first prepared (provided by Akyosi Fukamizu from University of Tsukuba, Japan).
HEK293T cells cultured in 15 cm dish were subjected to transfection with 32 μg of pGreenFire vector, 9 μg of VSVg envelope, 6.25 μg of Prev, and 12.5 μg of pMDL.
After 48 hours, viral supernatants were collected and concentrated using ultracentrifugation, and viral pellets were dissolved with PBS. SH-SY5Y cells were treated with concentrated virus and screened with puromycin (1 μg/ml) a day later.
SH-PGC-1α-Luc was dispensed in a white, flat-bottomed 96-well plate, where culture was performed to accommodate 10,000 cells in 100 μl of DMEM (10% FBS+penicillin/streptomycin (P/S)) per well, and the cells were stabilized in an incubator at 37° C. in the presence of 5% CO2 for 12 hours.
The next day, each drug was added to 50 μl of warmed DMEM to the final concentration of 20 μM, then 50 μl of DMEM was removed from the cell-containing plate, and 50 μl of drug-containing DMEM was added (final concentration of 10 μM). Cells were then exposed to the drug for 48 hours, and luciferase activity was measured using SteadyGlo reagent (Promega). […]

[1] = test system: PGC-1α protein in SH-SY5Y cells; test: Immunoblot of PGC-1α protein after treating SH-SY5Y cell line with compounds; assay type: cell-based, human; conditions: SH-SY5Y cell line, 0.01, 0.1, 1, 10 μM, 48 hours
Description: To culture human neuroblasts SH-SY5Y cells (ATCC, Manassas, VA), 10% FBS (vol/vol, Welgene Gold Serum, cat #S 001-07) and DMEM (Welgene fresh media DMEM, cat #LM 001-05) including antibiotics were used, wherein the culture was performed in an incubator (Forma Direct Heat CO2 incubator, Thermo Scientific) at 37° C. in the presence of 5% carbon dioxide.
(§1) RIPA buffer was added to the SH-SY5Y cells and SN of C57L/6N mice, followed by homogenization with a homogenizer. Thereafter, the freezing and melting process was repeated three times, and quantification was performed using a BCA kit based on BSA to check the total amount of protein.
(§2) Lysates were identified by adding 2× SDS sample buffer, heating at 95° C. for 10 minutes to perform immunoblot, and then treating the desired protein with antibody.
(§3) In the immunoblot experiment, the darkness of the band was measured using the ImageJ (NIH, Bethesda, […], USA, http://rsb.info.nih.gov/ij/) program, and statistical analysis was performed using the darkness of the protein band in proportion to the loading control. The statistical analysis was performed using the GraphPad Prism version 7 (GraphPad Software) program. For the data, the unpaired two-tailed student's t-test was applied, wherein p<of 0.05 indicates statistical significance.
As shown in Example 3, an image of an immunoblot performed after treating the SH-SY5Y cell line with compounds (10 μM, 48 hours) is shown in FIG. 6.

[2] = test system: PGC-1α protein in the SN of mice; test: Immunoblot of PGC-1α protein in the substantia nigra (SN) of mice fed compound diet; assay type: in vivo; conditions: diet 0.5% w/w for 1 week
Description: as §1, §2, §3
In FIG. 7, an immunoblot is shown for protein derived from the SN of mice fed with Chow, YPD-02 (2-[4-(3-oxo-1H-isoindol-2-yl)phenyl]propanoic acid), or YPD-01 (2-(4-(1-hydroxypropan-2-yl)phenyl) isoindoline-1-one) diet (0.5% w/w) for 1 week (quantitative graph quantified with β-actin/data was expressed as mean±SEM/statistical significance was measured by applying the unpaired two-tailed student t-test. * p<0.05, ** p<0.01.).

[3] = test system: dopamine neurons in substantia nigra of AAV-PARIS Parkinson's disease model mice; test: Death of dopamine neurons in AAV-PARIS Parkinson's disease model mice (TH immunohistochemistry and immunoblot); assay type: in vivo; conditions: AAV-PARIS injected mice, diet 0.5% w/w for 4 weeks
From the text: (§4) To prepare Parkinson's disease model mice, AAV-PARIS was stereotaxically injected into the substantia nigra area. The mice were fed with Chow or YPD-01 (2-(4-(1-hydroxypropan-2-yl)phenyl) isoindoline-1-one) diet (0.5% w/w) for 4 weeks, and then the brain was collected and sectioned using a microtome. Dopaminergic neurons were visualized by carrying out a reaction in the mouse brain tissue sliced into 35 μm sections using TH antibody, a neuronal dopamine marker, then exposed to Vectastine ABC (Vector biolabs) and DAB (Sigma) solutions. Six […] were used in each experiment.
100 μl of pentobarbital (10 mg/ml) was injected into the abdomen of 8-week-old mice for anesthetization, mouse pericranium was peeled off, and then the left brain (X: 1.2, Y: −3.2, Z: −4.5) and right brain (X: 1.2, Y: 3.2, Z: −4.5) regions were marked based on the bregma. The marked portion was drilled, and the virus was injected slowly (30 seconds per 0.2 μl) through a syringe. After injecting the virus into the left brain, followed by a 2-minute standby, the same procedure was performed on the other side. After the surgical suture, the mice were carefully monitored, and breeding was followed in the cage until the recovery. […]

[4] = test system: Parkinson's disease model mice; test: Pole test in AAV-PARIS Parkinson's disease model mice; assay type: in vivo; conditions: AAV-PARIS injected mice, YPD-01 diet 0.5% w/w
From the text: as §4
In order to identify whether YPD-01 is effective in inhibiting the death of dopamine neurons and Parkinson's disease-like behavioral abnormality in the Parkinson's disease model, as shown in Example 5 above, a pole test, which is the most reliable behavioral experiment, was performed.
To investigate behavioral abnormality, Parkinson's disease model mice were transferred to a pole test cage to have the mice adapted for 3 minutes, and then the mouse tails were held and placed on the tip of a vertically erected pole. The time from the moment the mouse took off its hind foot from the tip of the pole until the mouse came down to the floor was measured.

[5] = test system: PGC-1α and main target genes (NRF-1, Tfam); test: RT-qPCR of PGC-1α and its target genes (NRF-1, Tfam) in Parkinson's disease model mice; assay type: in vivo; conditions: substantia nigra of AAV-PARIS injected mice, diet for 4 weeks
From the text: as §4
In the animal model experiment set up as in Example 5, whether the expression of PGC-1α and the main target genes (NRF-1, Tfam) of PGC-1α increases due to YPD-01 intake was measured by RT-qPCR method.
The midbrain of mice into which AAV-PARIS was stereotaxically injected and which were fed with Chow or YPD-01 diet for 4 weeks was collected, and RNA was extracted using the total RNA extraction kit (Intron Biotechnology). cDNA was synthesized using the cDNA synthesis kit (Enzynomics) and oligo dT from the extracted RNA. Using primers and SYBR green (Qiagen) reagents for the gene to be analyzed, gene expression in Rotor gene Q (Qiagen) was quantified via qPCR.

For CC(CO)c1ccc(N2Cc3ccccc3C2=O)cc1 (stereo not drawn) [YPD-01, 2-(4-(1-hydroxypropan-2-yl)phenyl) isoindoline-1-one], which “activity on PGC-1α promoter among the 14 drugs (FIG. 5)” value (PGC-1α promoter) is on record?
Its value is “highest”.

What about the “amount of PGC-1α protein (immunoblot)” value [1] of the same compound?
The value was “increased the amount of PGC-1α protein regardless of the concentration”.

What about the “passage through the BBB” value [2] of the same compound?
Its value is “successfully passed through BBB”.

What about the “protein level of PGC-1α in the SN (immunoblot)” value ([2]; quantified with β-actin) of the same compound?
The value was “increased the protein level of PGC-1α”.

What about the “death of dopamine neurons (TH immunohistochemistry)” value [3] of the same compound?
Its value is “the death of dopamine neurons was meaningfully inhibited”.

And the “death of dopamine neurons (TH immunoblot in substantia nigra)” value ([3]; quantified with β-actin)?
The value was “the death of dopamine neurons by AAV-PARIS was inhibited”.

And the “symptoms of behavioral abnormality (time to come down from the top of the pole)” value [4]?
The value was “disappeared”.

And the “PARIS-induced suppression of expression of NRF-1 (RT-qPCR)” value [5]?
Its value is “significantly recovered”.

What about the “PARIS-induced suppression of expression of PGC-1α (RT-qPCR)” value [5] of the same compound?
Its value is “significantly recovered”.

And the “PARIS-induced suppression of expression of Tfam (RT-qPCR)” value [5]?
The value was “significantly recovered”.

Which “amount of PGC-1α protein (immunoblot)” value [1] does the source give for CC(C)OC(=O)C(C)c1ccc(N2Cc3ccccc3C2=O)cc1 (stereo not drawn) [YPD-03, isopropyl 2-(4-(1-oxoisoindolin-2-yl)phenyl) propanoate] here?
The value was “increased the amount of PGC-1α protein in accordance with an increase in the drug concentration”.

Which “amount of PGC-1α protein (immunoblot)” value [1] does the source give for CC(C(=O)O)c1ccc(N2Cc3ccccc3C2=O)cc1 (stereo not drawn) [YPD-02, 2-[4-(3-oxo-1H-isoindol-2-yl)phenyl]propanoic acid, reference compound] here?
Its value is “increased the amount of PGC-1α protein in accordance with an increase in the drug concentration”.
